Assay results: the supplement of paper PMC11208160

Assay: recombinant UMI read abundance after kanamycin selection (control-corrected) (log10(CPM+1)); higher = more efficient recombination; extreme values may be limits of the assay; sequences stand for … in AGTGCAGAGAAAATCGGCCAGTTTTCTCTGCCTGCAGTCCGCATGCCGTGGGACCCCTTGGGTTCTAACCTGTTGCCTAGATTTATGCAGCGGACTGCCTTTCTCCCAAAGTGATAAACCGG…AGGTTGGTTTCACT; site = the 11-nt donor
Summary of the method: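 Reported values are log10(CPM+1) from a pooled Escherichia coli screen of donor and donor-binding-loop pairs for the IS621 bridge recombinase. Selection used IPTG (0.07 mM) plus kanamycin, against unselected plating, each in two replicates. Recombinant UMIs were amplified across the donor–target junction, sequenced, converted to CPM, averaged over replicates and scaled by control-derived factors.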
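Also: IS621 bridge recombinase in Escherichia coli cells against a fixed T5 target plasmid.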

Going from “ATCAAAGCATGGACCGGTTTTCCCGGTAATCCGTATTTGAG (site ATCTAAGCTCT)” to “ATCACATCATGGACCGGTTTTCCCGGTAATCCGTATTTGCG (site ATCACATCTCG)”, the “recombinant UMI read abundance (log10)” value rises from 0.855 to 2.31.

“ATCAGACCATGGACCGGTTTTCCCGGTAATCCGTATTTGCA (site ATCAGACCTTG)” and “ATCAGGCCATGGACCGGTTTTCCCGGTAATCCGTATTTGAC (site ATAAGGCCTGT)” are the same in “recombinant UMI read abundance (log10)” value: 0 for the first, 0 for the second.

“ATCAGGCCATGGACCGGTTTTCCCGGTAATCCGTATTTGAC (site ATCAGGCCTGT)” and “ATCAGGCCATGGACCGGTTTTCCCGGTAATCCGTATTTGAC (site ATGAGGCCTGT)” are the same in “recombinant UMI read abundance (log10)” value: 0 for the first, 0 for the second.

“ATCAGGCCATGGACCGGTTTTCCCGGTAATCCGTATTTGAC (site ATTAGGCCTGT)” and “ATCAGGCCATGGACCGGTTTTCCCGGTAATCCGTATTTGAG (site ATCAGGCCTCT)” are the same in “recombinant UMI read abundance (log10)” value: 0 for the first, 0 for the second.

First: ATCATGCCATGGACCGGTTTTCCCGGTAATCCGTATTTGCC (site ATCATGCCTGG)
Second: ATCATTGCATGGACCGGTTTTCCCGGTAATCCGTATTTGAC (site ATCATTGCTGT)
The “recombinant UMI read abundance (log10)” value of the first is lower: 0 for the first, 1.48 for the second.

Compared with “ATCATTTCATGGACCGGTTTTCCCGGTAATCCGTATTTGCA (site ATCATTTCTTG)”, “ATCCAAGCATGGACCGGTTTTCCCGGTAATCCGTATTTGAC (site ATCCAAGCTAT)” is lower in “recombinant UMI read abundance (log10)” value: 1.73 for the first, 0.937 for the second.

First: ATCCAAGCATGGACCGGTTTTCCCGGTAATCCGTATTTGAC (site ATCCAAGCTCT)
Second: ATCCAAGCATGGACCGGTTTTCCCGGTAATCCGTATTTGAC (site ATCCAAGCTGT)
The “recombinant UMI read abundance (log10)” value of the first is lower: 0.0101 for the first, 1.73 for the second.

First: ATCCAAGCATGGACCGGTTTTCCCGGTAATCCGTATTTGAC (site ATCCAAGCTTT)
Second: ATCCAAGCATGGACCGGTTTTCCCGGTAATCCGTATTTGAG (site AACCAAGCTCT)
The “recombinant UMI read abundance (log10)” value of the first is higher: 0.767 for the first, 0.0115 for the second.

Going from “ATCCAAGCATGGACCGGTTTTCCCGGTAATCCGTATTTGAG (site ACCCAAGCTCT)” to “ATCCAAGCATGGACCGGTTTTCCCGGTAATCCGTATTTGAG (site AGCCAAGCTCT)”, the “recombinant UMI read abundance (log10)” value falls from 0.646 to 0.194.

First: ATCCAAGCATGGACCGGTTTTCCCGGTAATCCGTATTTGAG (site ATACAAGCTCT)
Second: ATCCAAGCATGGACCGGTTTTCCCGGTAATCCGTATTTGAG (site ATCAAAGCTCT)
The “recombinant UMI read abundance (log10)” value of the first is lower: 0.0267 for the first, 0.429 for the second.

First: ATCCAAGCATGGACCGGTTTTCCCGGTAATCCGTATTTGAG (site ATCCAAACTCT)
Second: ATCCAAGCATGGACCGGTTTTCCCGGTAATCCGTATTTGAG (site ATCCAACCTCT)
The “recombinant UMI read abundance (log10)” value of the first is higher: 1.09 for the first, 0.00996 for the second.

First: ATCCAAGCATGGACCGGTTTTCCCGGTAATCCGTATTTGAG (site ATCCAAGCTAT)
Second: ATCCAAGCATGGACCGGTTTTCCCGGTAATCCGTATTTGAG (site ATCCAAGCTCA)
The “recombinant UMI read abundance (log10)” value of the first is higher: 1.64 for the first, 0.209 for the second.

“ATCCAAGCATGGACCGGTTTTCCCGGTAATCCGTATTTGAG (site ATCCAAGCTCC)” and “ATCCAAGCATGGACCGGTTTTCCCGGTAATCCGTATTTGAG (site ATCCAAGCTCG)” are within 0.2 log units of each other in “recombinant UMI read abundance (log10)” value: 0.0127 for the first, 0.141 for the second.

Compared with “ATCCAAGCATGGACCGGTTTTCCCGGTAATCCGTATTTGAG (site ATCCAAGCTCT)”, “ATCCAAGCATGGACCGGTTTTCCCGGTAATCCGTATTTGAG (site ATCCAAGCTGT)” is lower in “recombinant UMI read abundance (log10)” value: 0.799 for the first, 0 for the second.

“ATCCAAGCATGGACCGGTTTTCCCGGTAATCCGTATTTGAG (site ATCCAAGCTTT)” and “ATCCAAGCATGGACCGGTTTTCCCGGTAATCCGTATTTGAG (site ATCCAATCTCT)” are within 0.2 log units of each other in “recombinant UMI read abundance (log10)” value: 0.757 for the first, 0.773 for the second.

Going from “ATCCAAGCATGGACCGGTTTTCCCGGTAATCCGTATTTGAG (site ATCCACGCTCT)” to “ATCCAAGCATGGACCGGTTTTCCCGGTAATCCGTATTTGAG (site ATCCAGGCTCT)”, the “recombinant UMI read abundance (log10)” value rises from 0.0466 to 0.356.

“ATCCAAGCATGGACCGGTTTTCCCGGTAATCCGTATTTGAG (site ATCCATGCTCT)” and “ATCCAAGCATGGACCGGTTTTCCCGGTAATCCGTATTTGAG (site ATCCCAGCTCT)” are within 0.2 log units of each other in “recombinant UMI read abundance (log10)” value: 0.0106 for the first, 0.0104 for the second.

Compared with “ATCCAAGCATGGACCGGTTTTCCCGGTAATCCGTATTTGAG (site ATCCGAGCTCT)”, “ATCCAAGCATGGACCGGTTTTCCCGGTAATCCGTATTTGAG (site ATCCTAGCTCT)” is higher in “recombinant UMI read abundance (log10)” value: 0.00838 for the first, 0.357 for the second.

First: ATCCAAGCATGGACCGGTTTTCCCGGTAATCCGTATTTGAG (site ATCGAAGCTCT)
Second: ATCCAAGCATGGACCGGTTTTCCCGGTAATCCGTATTTGAG (site ATCTAAGCTCT)
The “recombinant UMI read abundance (log10)” value of the first is lower: 0.00681 for the first, 0.231 for the second.

“ATCCAAGCATGGACCGGTTTTCCCGGTAATCCGTATTTGAG (site ATGCAAGCTCT)” and “ATCCAAGCATGGACCGGTTTTCCCGGTAATCCGTATTTGAG (site ATTCAAGCTCT)” are within 0.2 log units of each other in “recombinant UMI read abundance (log10)” value: 0.0198 for the first, 0.0155 for the second.

Compared with “ATCCAAGCATGGACCGGTTTTCCCGGTAATCCGTATTTGAG (site CTCCAAGCTCT)”, “ATCCAAGCATGGACCGGTTTTCCCGGTAATCCGTATTTGAG (site GTCCAAGCTCT)” is lower in “recombinant UMI read abundance (log10)” value: 0.656 for the first, 0.00952 for the second.

“ATCCAAGCATGGACCGGTTTTCCCGGTAATCCGTATTTGAG (site TTCCAAGCTCT)” and “ATCCAAGCATGGACCGGTTTTCCCGGTAATCCGTATTTGAT (site ATCCAAGCTAT)” are within 0.2 log units of each other in “recombinant UMI read abundance (log10)” value: 1.17 for the first, 1.36 for the second.

First: ATCCAAGCATGGACCGGTTTTCCCGGTAATCCGTATTTGAT (site ATCCAAGCTCT)
Second: ATCCAAGCATGGACCGGTTTTCCCGGTAATCCGTATTTGAT (site ATCCAAGCTGT)
The “recombinant UMI read abundance (log10)” value of the first is lower: 0.233 for the first, 1.37 for the second.

“ATCCAAGCATGGACCGGTTTTCCCGGTAATCCGTATTTGAT (site ATCCAAGCTTT)” and “ATCCAAGCATGGACCGGTTTTCCCGGTAATCCGTATTTGCG (site ATCCAAGCTCA)” are within 0.2 log units of each other in “recombinant UMI read abundance (log10)” value: 0.0123 for the first, 0.0396 for the second.

First: ATCCAAGCATGGACCGGTTTTCCCGGTAATCCGTATTTGCG (site ATCCAAGCTCC)
Second: ATCCAAGCATGGACCGGTTTTCCCGGTAATCCGTATTTGCG (site ATCCAAGCTCG)
The “recombinant UMI read abundance (log10)” value of the first is lower: 0.00949 for the first, 0.262 for the second.

Compared with “ATCCAAGCATGGACCGGTTTTCCCGGTAATCCGTATTTGCG (site ATCCAAGCTCT)”, “ATCCATGCATGGACCGGTTTTCCCGGTAATCCGTATTTGAG (site ATCCAAGCTCT)” is lower in “recombinant UMI read abundance (log10)” value: 0.689 for the first, 0.0773 for the second.

“ATCCATGCATGGACCGGTTTTCCCGGTAATCCGTATTTGAG (site ATCCACGCTCT)” and “ATCCATGCATGGACCGGTTTTCCCGGTAATCCGTATTTGAG (site ATCCAGGCTCT)” are within 0.2 log units of each other in “recombinant UMI read abundance (log10)” value: 0.0124 for the first, 0.0333 for the second.

First: ATCCATGCATGGACCGGTTTTCCCGGTAATCCGTATTTGAG (site ATCCATGCTCT)
Second: ATCCGCGCATGGACCGGTTTTCCCGGTAATCCGTATTTGCG (site ATCCGCGCTCG)
The “recombinant UMI read abundance (log10)” value of the first is higher: 1.05 for the first, 0.503 for the second.

Compared with “ATCCTAGCATGGACCGGTTTTCCCGGTAATCCGTATTTGTA (site ATCCTAGCTTA)”, “ATCCTATCATGGACCGGTTTTCCCGGTAATCCGTATTTGAG (site ATCCTATCTCT)” is lower in “recombinant UMI read abundance (log10)” value: 1.58 for the first, 0.448 for the second.

Going from “ATCCTTCCATGGACCGGTTTTCCCGGTAATCCGTATTTGCC (site ATCCTTCCTGG)” to “ATCGAGACATGGACCGGTTTTCCCGGTAATCCGTATTTGGT (site ATAGAGACTAC)”, the “recombinant UMI read abundance (log10)” value rises from 0 to 1.76.

First: ATCGAGACATGGACCGGTTTTCCCGGTAATCCGTATTTGGT (site ATCGAGACTAC)
Second: ATCGAGACATGGACCGGTTTTCCCGGTAATCCGTATTTGGT (site ATGGAGACTAC)
The “recombinant UMI read abundance (log10)” value of the first is higher: 1.01 for the first, 0.604 for the second.

Going from “ATCGAGACATGGACCGGTTTTCCCGGTAATCCGTATTTGGT (site ATTGAGACTAC)” to “ATCGCGGCATGGACCGGTTTTCCCGGTAATCCGTATTTGTC (site ATCGCGGCTGA)”, the “recombinant UMI read abundance (log10)” value rises from 0.017 to 2.69.

“ATCTATACATGGACCGGTTTTCCCGGTAATCCGTATTTGAA (site ATCTATACTAT)” and “ATCTATACATGGACCGGTTTTCCCGGTAATCCGTATTTGAA (site ATCTATACTCT)” are within 0.2 log units of each other in “recombinant UMI read abundance (log10)” value: 0.0589 for the first, 0.0128 for the second.

Going from “ATCTATACATGGACCGGTTTTCCCGGTAATCCGTATTTGAA (site ATCTATACTGT)” to “ATCTATACATGGACCGGTTTTCCCGGTAATCCGTATTTGAA (site ATCTATACTTT)”, the “recombinant UMI read abundance (log10)” value rises from 0 to 1.29.
